According to patent publication US20240024302A1, “SOLUBLE EPOXIDE HYDROLASE (sEH) INHIBITORS AND DUAL COX/sEH INHIBITORS FOR THE TREATMENT OF ARRHYTHMOGENIC CARDIOMYOPATHY” (BETH ISRAEL DEACONESS MEDICAL CENTER, INC., priority 2020, published 2024):
In brackets after ≈: the same amount, converted by molar mass. Entries after “also recorded” stand apart in the source; their conditions may differ.

How the values were obtained:
[1] = biological target: T1, soluble epoxide hydrolase (sEH) (Homo sapiens, UniProt P34913); experiment: Human in vitro Ki and dissociation t1/2 from the enzyme (fluorescence signals); format: binding; conditions: for Human In vitro t1/2 (time for half of the drug being dissociated from the enzyme): based on fluorescence signals
T1 sequence (P34913 1-555): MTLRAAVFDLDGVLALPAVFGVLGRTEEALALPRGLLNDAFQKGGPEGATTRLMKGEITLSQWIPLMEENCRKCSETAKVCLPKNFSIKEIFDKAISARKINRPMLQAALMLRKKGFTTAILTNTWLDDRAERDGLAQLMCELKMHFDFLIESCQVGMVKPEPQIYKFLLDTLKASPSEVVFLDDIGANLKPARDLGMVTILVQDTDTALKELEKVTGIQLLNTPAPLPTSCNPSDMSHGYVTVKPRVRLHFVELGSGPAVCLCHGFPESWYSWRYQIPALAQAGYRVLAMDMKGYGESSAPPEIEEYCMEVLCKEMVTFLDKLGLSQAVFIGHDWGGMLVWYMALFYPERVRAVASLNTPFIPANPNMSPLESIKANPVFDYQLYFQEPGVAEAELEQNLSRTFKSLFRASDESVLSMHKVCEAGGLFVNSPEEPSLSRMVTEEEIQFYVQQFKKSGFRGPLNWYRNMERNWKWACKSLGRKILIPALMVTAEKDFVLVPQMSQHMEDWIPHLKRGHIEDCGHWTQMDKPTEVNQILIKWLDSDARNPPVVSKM

[2] = Rat PK, single oral gavage; format: in vivo; conditions: single dose 0.1 mg/kg
[3] = Mouse PK, single oral gavage; conditions: mouse, in vivo, po, 0.3 mg/kg, single dose 0.3 mg/kg; for AUC: Mouse AUC, 20% PEG400 in oleic acid-rich triglyceride
[4] = Solubility in buffer; format: physicochemical; conditions: aqueous buffer; Sodium Phosphate Buffer at pH 7.4
[5] = Experimental LogP; format: physicochemical
[6] = system: Neonatal rat ventricular myocytes (NRVM) expressing 2157del2 JUP; experiment: Immunofluorescence of junction proteins in ACM in vitro model; format: cell-based; conditions: for Loss of cell surface signal for Cx43 / Redistribution of junctional plakoglobin to intracellular/nuclear sites: 500 nM 2.017 or 1 μM 1.045, 24 hours; for ACM disease features overall (plakoglobin, Cx43, pRelA/p65, TUNEL), sEH inhibitors: Jup2157del2 myocytes, 2.017 500 nM, 1.045 1 μM, concentration not given for 1,002 and 3.023
Protocol: Neonatal rat ventricular myocytes (NRVM) were isolated from the ventricles of 1-day-old Wistar rat pups and plated on collagen-coated plastic chambers. 24 hours following seeding, the cells were transfected with an adenoviral construct expressing a mutant form of plakoglobin known to cause arrhythmogenic cardiomyopathy in patients (2157del2 JUP). […] Non-transfected cultures and cultures transfected with the adenoviral construct only served as negative and positive controls, respectively.
(§1) Immunofluorescence: Cell cultures were fixed with 4% paraformaldehyde and prepared for immunofluorescence analysis as previously described (1). […] Cy3-conjugated goat anti-mouse and anti-rabbit antibodies (Jackson Immunolabs) were used as secondary antibodies and DAPI was used to visualize the nuclei. Immunostained preparations were visualized by confocal microscopy and changes in spatial distribution of signal were assessed qualitatively.

[7] = system: Neonatal rat ventricular myocytes (NRVM) expressing 2157del2 JUP; experiment: TUNEL apoptosis assay in ACM in vitro model; format: cell-based; conditions: 500 nM 2.017 or 1 μM 1.045, 24 hours
Protocol: (§2) Neonatal rat ventricular myocytes (NRVM) were isolated from the ventricles of 1-day-old Wistar rat pups and plated on collagen-coated plastic chambers. 24 hours following seeding, the cells were transfected with an adenoviral construct expressing a mutant form of plakoglobin known to cause arrhythmogenic cardiomyopathy in patients (2157del2 JUP). 24 hours following transfection, the cells were treated with 500 nM 2.017 or 1 μM 1.045 for an additional 24 hours. Non-transfected cultures and cultures transfected with the adenoviral construct only served as negative and positive controls, respectively.
Apoptosis assay: Terminal deoxynucleotidyl transferase dUTP nick end labelling (TUNEL) was performed on NRVM cultures following the manufacturer's instructions (Millipore, S7110). DNA strand breaks generated in apoptotic cells were labelled with fluorescein (green) and nuclei were visualized with DAPI. The number of TUNEL-positive nuclei was counted in 5 randomly selected high-power fields in each culture well and expressed as a percent of total nuclei visualized with DAPI.

[8] = system: NFκB; experiment: Nuclear pRelA/p65 immunofluorescence (NFκB activation) in ACM in vitro model; format: cell-based, rat; conditions: 500 nM 2.017 or 1 μM 1.045, 24 hours
Protocol: as §2, §1

[9] = system: Dsg2^mut/mut mice; experiment: LV function in Dsg2mut/mut mice; format: in vivo, mouse; conditions: 3 mg/kg/day for 20 days, vs. untreated mice

Row | SMILES | Human In vitro t1/2 (time for half of the drug being dissociated from the enzyme) [1] | AUC ([3]; oral gavage) | Exp. LogP [5] | Loss of cell surface signal for Cx43 [6] | Redistribution of junctional plakoglobin to intracellular/nuclear sites [6] | ACM disease features overall (plakoglobin, Cx43, pRelA/p65, TUNEL), sEH inhibitors [6] | Myocyte apoptosis (TUNEL+ nuclei) [7] | Activation of NFκB (nuclear signal for pRelA/p65) [8] | other results
1 | CC[C@H](C)C(=O)N1CCC(NC(=O)Nc2ccc(OC(F)(F)F)c(Cl)c2)CC1 | 0.167 h | ≥ 0.0999 µM·h |  |  |  |  |  |  | Cmax ([2]; rat, in vivo): 42 ± 6 nM; Tmax ([2]; rat, in vivo): 2.1 ± 0.3 h; AUC ([2]; rat, in vivo, PEG 300): 0.241 ± 0.012 µM·h; half-life ([2]; rat, in vivo, read-out: Rat T1/2 (converted)): 2.9 ± 0.5 h
2 | CC[C@H](C)C(=O)N1CCC(CC(=O)Nc2ccc(OC(F)(F)F)cc2F)CC1 | 0.0783 h |  |  |  |  |  |  |  | solubility [4]: 2.6 µg/mL (≈ 6.43 µM); logP ([5]; read-out: Exp. LogP): 6; Ki [1]: 4.72 nM
3 | O=C(Nc1ccc(C(F)(F)F)c(F)c1)NC1CCN(C(=O)[C@@H]2CCOC2)CC1 (stereo in doubt) |  |  | 3.41 |  |  |  |  |  | 
4 | CCC(=O)N1CCC(NC(=O)Nc2ccc(OC(F)(F)F)cc2)CC1 [Compound 1.045] |  |  |  | reduced loss of cell surface signal for Cx43 | prevented redistribution of junctional plakoglobin; also recorded: prevented translocation of junctional plakoglobin | reversed | greatly diminished myocyte apoptosis | prevented activation of NFκB; also recorded: blocked activation of NFκB | LV function [9]: marked recovery of LV function; also recorded: recovered LV function
5 | NS(=O)(=O)c1ccc(-n2nc(CCCNC(=O)Nc3ccc(C(F)(F)F)cc3)cc2-c2ccccc2)cc1 [Compound 2.017] |  |  |  | reduced loss of cell surface signal for Cx43 | prevented redistribution of junctional plakoglobin; also recorded: prevented translocation of junctional plakoglobin | reversed | greatly diminished myocyte apoptosis | prevented activation of NFκB; also recorded: blocked activation of NFκB | 
6 | CC[C@H](C)C(=O)N1CCC(NC(=O)Nc2ccc(OC(F)(F)F)c(F)c2)CC1 [drawing 88] |  | 0.0998 ± 0.0001 µM·h | 5.98 |  |  |  |  |  | Cmax [2]: 42 ± 6 nM; Rat T1/2 [2]: 1.6 ± 0.2 h; Rat Tmax [2]: 1.8 ± 0.1 h; Rat AUC ([2]; PEG 300): 0.208 ± 0.025 µM·h; Cmax ([3]; Mouse Cmax, oral gavage): 737 nM; half-life ([3]; Mouse T1/2, oral gavage): 117 h; Tmax ([3]; Mouse Tmax, oral gavage): 1.6 h
